From ChEMBL document CHEMBL1147879, “Synthesis of soluble multivalent glycoconjugates that target the Hc region of botulinum neurotoxin A” (Bioorg Med Chem Lett, 2007)
Active and inactive are the calls of the source. The calls are words filed in the database; no cut-off is given here.

Target: Synaptosomal-associated protein 25 (Rattus norvegicus) (UniProt P60881)
Test: Inhibition of BoNT/A-mediated SNAP25 cleavage in rat spinal card cells after 24 hrs by Western blot analysis
Assay type: cell-based

Synaptosomal-associated protein 25 (Rattus norvegicus), sequence (P60881 whole entry, looked up): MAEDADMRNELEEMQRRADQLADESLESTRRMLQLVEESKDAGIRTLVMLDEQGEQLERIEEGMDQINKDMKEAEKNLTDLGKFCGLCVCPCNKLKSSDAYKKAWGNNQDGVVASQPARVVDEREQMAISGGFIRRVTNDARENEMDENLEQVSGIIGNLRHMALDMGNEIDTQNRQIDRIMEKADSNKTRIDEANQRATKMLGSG

SMILES: CC(=O)N[C@@H]1[C@@H]([C@@H](C)C(O)CCO)O[C@](SCC(=O)NCCOCCOCCOCCn2cc(CNC(=O)c3cc(NC(=O)CN)cc(C(=O)NCc4cn(CCOCCOCCOCCNC(=O)CS[C@]5(C(=O)O)C[C@H](O)[C@@H](NC(C)=O)[C@H]([C@H](C)C(O)CCO)O5)nn4)c3)nn2)(C(=O)O)C[C@H]1O (some centres not stated)
- Activity: Active

SMILES: CC(=O)N[C@@H]1[C@@H]([C@@H](C)C(O)CCO)O[C@](SCC(=O)NCCOCCOCCOCCn2cc(CNC(=O)c3cc(NC(=O)CNC(=O)c4cc(NC(=O)CN)cc(C(=O)NCC(=N)Nc5cc(C(=O)NCc6cn(CCOCCOCCOCCNC(=O)CS[C@@]7(C(=O)O)C[C@@H](O)[C@H](NC(C)=O)[C@@H]([C@@H](C)C(O)CCO)O7)nn6)cc(C(=O)NCc6cn(CCOCCOCCOCCNC(=O)CS[C@@]7(C(=O)O)C[C@@H](O)[C@H](NC(C)=O)[C@@H]([C@@H](C)C(O)CCO)O7)nn6)c5)c4)cc(C(=O)NCc4cn(CCOCCOCCOCCNC(=O)CS[C@]5(C(=O)O)C[C@H](O)[C@@H](NC(C)=O)[C@H]([C@H](C)C(O)CCO)O5)nn4)c3)nn2)(C(=O)O)C[C@H]1O (some centres not stated)
- Activity: Active
